Each block holds one compound with its values, some of them ahead of it.
Assays:
B16 melanoma [1] = assay: In vitro binding of [125I]BZZ to homogenate of B16 melanoma; set-up: species or system mouse
Protocol: (§1) A tissue homogenate rather than washed particulate material was used for the assay. The assay system (final volume 200 μ) contained Tris-HCl (pH 7.4), 80 mM; ethyleneglyco-bis-(β-aminoethyl ether) N,N',tetraacetic (EGTA), 0.8 mM and MgSO4, 10 mM; radiolabeled ligand (40,000 cpm, 60 pM) and the unlabeled ligand as required for competitive assay; and incubations were performed at 25° C. for about 60 min. When binding to striatum and to tumor were compared, binding to homogenates of both tissues was determined simultaneously. In order to determine the reproducibility of the results, ligand binding was determined in 3 replicate samples for each experimental condition. The mean of these three values was taken as a single errorless value and the mean of three (or more) of such values from independent experiments is reported. Data represent mean ± SE.

D-1 dopamine receptor = molecular target: T1, D-1 dopamine receptor (Mus musculus, UniProt Q61616); assay: In vitro binding of [125I]BZZ to homogenate of caudate putamen (competition with unlabeled SCH23390 enantiomers); details: FIG. 4A
T1 construct: homogenate of the caudate putamen of the Swiss Webster mouse brain; from tissue; host or cells: caudate-putamen homogenate, Swiss Webster mouse brain
Protocol: as §1

human melanoma = assay: In vitro autoradiography of frozen sections of human melanoma (lymph node); format: binding; details: lymph node with pigmented metastatic melanoma; 200 pM ligand; FIG. 6 right
Protocol: (§2) After animals were killed, the brain, eyes or tumor were immediately removed and frozen on dry ice. Frozen, 16 μthick sections were cut in a cryostat at -16° C., thaw-mounted onto gelatin-coated slides and stored overnight under vacuum at 4° C. The tissue sections were preincubated for 15 min in 50 mM Tris-HCl buffer, pH 7.4, for 15 min and then incubated for 20 min in a solution containing 50 mM Tris-HCl, pH 7.4, 120 mM NaCl, 5 mM KCl, 2 mM CaCl2, 1 mM MgCl2 and 200 pM iodinated ligand (either R or S enantiomer). After incubation, the slides were washed 4 times in ice-cold 50 mM Tris-HCl buffer and dried under a stream of air. Autoradiographic images were produced by placing the slides in X-ray casettes and using them to expose [^3 H]ultra film for 15 hours following standard procedure.

B16 melanoma [2] = assay: In vitro autoradiography of frozen sections of B16 melanoma; format: binding, mouse; details: 200 pM ligand; FIG. 6 left
Protocol: as §2

[3] = tested on: caudate nucleus of the rat brain; assay: Binding of [125I]BZZ enantiomers to homogenate of caudate nucleus; details: FIG. 5
Protocol: as §1

[4] = In vivo accumulation of radiolabel in eyes of pigmented and albino mice; set-up: species or system mouse
Protocol: (§3) Radiolabeled ligand was dissolved in Hank's balanced salt solution and administered via the tail vein as a bolus of 100 μl. At appropriate times, the animals were sacrificed and various organs removed. The amount of ^125 I radioactivity within a given organ was determined with a gamma counter.
as §2

B16 melanoma [5] = assay: In vivo accumulation of intravenously administered radiolabel in B16 melanoma (gamma counting, autoradiography); set-up: species or system mouse
Protocol: The B16 melanoma was removed from the host mouse, washed in a balanced salt solution and then cut into small fragments (approximately 2 mm cubes). A tumor fragment was then implanted subcutaneously with a trochar into either the back or hind limb of the recipient mouse (either a C57/B16 or Swiss-Webster). Tumors could be easily seen within 2 to 3 weeks after implantation of the tumor fragment.
as §3, §2

[6] = In vitro autoradiography of frozen section of retina; format: binding, mouse; details: FIG. 3C
Protocol: as §2
Emulsion autoradiography was performed as follows: a flexible coverslip coated with NTB-3 (Kodak) was exposed to the tissue section; when the exposure was complete in about a day (about 24 hrs) the emulsion was developed at 4° for 2 min in D-19 developer. The section was stained with hematoxylin and eosin and the coverslip was reexposed to the stained section.

B16 melanoma [7] = assay: Noninvasive imaging of [125I] with pinhole collimator and gamma camera; format: in vivo, mouse; details: tumor-bearing and nontumor-bearing mice; 50 μCi intravenous; FIG. 2
Protocol: Mice received a bolus injection of [^125 I]BZZ (50 μCi) dissolved in Hank's balanced salt solution via the tail vein. At several times, the distribution of [^125 I]was determined by imaging with a pinhole collimeter attached to a gamma camera (Raytheon Nuclear Diagnostics).

[8] = mouse given B16 melanoma cells intravenously 3 weeks earlier, 50 μCi, autoradiogram FIG. 1D, E

T1 sequence (Q61616 whole entry): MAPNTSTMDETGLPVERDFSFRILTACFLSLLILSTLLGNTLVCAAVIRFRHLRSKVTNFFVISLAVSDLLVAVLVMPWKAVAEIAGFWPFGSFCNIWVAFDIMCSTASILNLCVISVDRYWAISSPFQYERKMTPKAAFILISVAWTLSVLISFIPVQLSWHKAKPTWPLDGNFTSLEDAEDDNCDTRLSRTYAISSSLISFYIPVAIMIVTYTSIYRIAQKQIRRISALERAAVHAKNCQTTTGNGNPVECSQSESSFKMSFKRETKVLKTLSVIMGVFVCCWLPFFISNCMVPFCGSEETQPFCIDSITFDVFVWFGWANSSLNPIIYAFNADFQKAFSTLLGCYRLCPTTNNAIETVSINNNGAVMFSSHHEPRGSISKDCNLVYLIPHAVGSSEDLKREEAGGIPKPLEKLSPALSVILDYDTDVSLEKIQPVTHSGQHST

Compound: CN1CCc2cc(Cl)c(O)cc2C(c2ccccc2)C1 (centres unmarked) [2,3,4,5-tetrahydro-8-chloro-3 methyl-5-phenyl-1H-3 benzazepin-7-ol]
displacement of [125I]BZZ from melanoma tissue (B16 melanoma [1]): effectively displaced

Compound: CN1CCc2cc(Cl)c(O)cc2[C@@H](c2ccccc2)C1 [R-enantiomer, reference compound]
affinity for R-enantiomer relative to S-enantiomer (D-1 dopamine receptor; D-1 receptor in caudate nucleus, displacement of [125I]BZZ): 100 fold | concentration required to displace [125I]BZZ from melanoma binding site relative to D-1 dopamine receptor (B16 melanoma [1]; B16 melanoma versus caudate homogenate, FIGS. 4A and B): 400 fold | difference between R- and S-enantiomers (B16 melanoma [1]; binding site in B16 melanoma, displacement of [125I]BZZ, FIG. 4B): 5.1 fold

binding to metastatic human melanoma (frozen section autoradiogram) (human melanoma): effectively bind | binding to frozen sections of murine B16 melanoma (B16 melanoma [2]): bound to frozen sections | binding to homogenate of caudate nucleus [3]: failed to bind
Compound: CN1CCc2cc([125I])c(O)cc2[C@H](c2ccccc2)C1 [[^125 I]-S-BZZ]
binding to pigmented B16 melanoma homogenate (B16 melanoma [1]; compared with R-enantiomer, FIG. 5): to the same degree as did its R-enantiomer

binding to metastatic human melanoma (frozen section autoradiogram) (human melanoma): effectively bind | difference between amount of radiolabel accumulated in pigmented and albino eyes ([4]; C57B1/6 versus Swiss Webster mouse, 10 μCi intravenous, P<0.001): 79 fold | binding to frozen sections of murine B16 melanoma (B16 melanoma [2]): bound to frozen sections | concentration of radiolabel within B-16 melanoma relative to nonpigmented eye (B16 melanoma [5]; albino mouse, 10 μCi intravenous, within 45 min, p<0.001): 19 times | accumulation of radiolabel in foci of pigmented cells of lung (metastatic melanoma) (B16 melanoma [5]; [8]): heavy accumulation of radiolabel | binding of ligand to normal lung tissue (B16 melanoma [5]; [8]): does not bind the ligand | amount of bound radioactivity corresponding to 100 percent (D-1 dopamine receptor; homogenate of caudate putamen of Swiss Webster mouse brain): 23,379±555 cpm/mg wet wt | amount of bound radioactivity corresponding to 100 percent (B16 melanoma [1]; homogenate of B16 melanoma propagated in Swiss Webster mice, FIG. 4B): 18,033±3,647 cpm/mg wet weight | accumulation within the abdomen (B16 melanoma [7]): substantial accumulation
Compound: CN1CCc2cc([125I])c(O)cc2[C@@H](c2ccccc2)C1 [[^125 I]BZZ]
localization of radiolabel within the pigmented eye (autoradiography) ([4]; 50 μCi, 45 min, FIG. 3B): accumulated predominantly in a narrow band at the back of the pigmented eye | accumulation of radiolabel in tumor versus surrounding tissues (autoradiograph) (B16 melanoma [5]; frozen section of B16 melanoma after intravenous administration, FIG. 1B, C): much higher degree than within the surrounding tissues | localization of radiolabel in frozen section of retina exposed to ligand in vitro [6]: highly concentrated within the melanin containing pigment epithelium

Reference: patent US4749559A, “Method for detecting melanin-containing matter” (United States of America, priority 1986, dated 1988)
